# Test results as given in paper PMC3164776 (Biochemistry, 2010).
# Where “and” joins values, the source holds several entries; their conditions need not be identical. Identical values can stand only once. Like-named read-outs stand apart in the source and are kept apart here.
# What was measured:
# KB-V1 cells = settings: for effect on MDR phenotype: cytotoxicity of paclitaxel and vinblastine, Supplemental Information 2; for change of LD50 / resistance in presence of 5-CHInd: 10 μM 5-CHInd over 72 hours, Figure 4A
# [1] = target: P-gp (MDCK-MDR1 monolayers) (Homo sapiens, UniProt P08183); assay: Monolayer efflux experiment, MDCK-MDR1 monolayers
# P-gp [2] = target: T1, P-gp (Homo sapiens, UniProt P08183); assay: P-gp ATPase assay, hydrolysis of [γ-32P]-ATP by P-gp membranes; assay type: biochemical
# KB3-1 cells = assay: MTT cytotoxicity assay in KB3-1 cells; assay type: cell-based
# MDCK monolayers = assay: Monolayer efflux experiment, MDCK monolayers; settings: substance alone (10 μM 5-CHInd, 3 μM rhodamine 123, 4 μM calcein-AM)
# P-gp [3] = target: T1, P-gp; assay: PDSP cell-based screen: accumulation of calcein-AM in Caco-2 cells; settings: analogs of the screened nucleoside library
# P-gp (MDR1) = P-gp (MDR1) (Homo sapiens, UniProt P08183); assay: Monolayer efflux experiment, MDCK-MDR1 monolayers; settings: dog
# [4] = Monolayer efflux experiment, MDCK monolayers; settings: dog
# [5] = substance alone (10 μM 5-CHInd, 3 μM rhodamine 123, 4 μM calcein-AM), mean ± SEM
# Chain of P-gp (MDCK-MDR1 monolayers) (P08183 whole entry): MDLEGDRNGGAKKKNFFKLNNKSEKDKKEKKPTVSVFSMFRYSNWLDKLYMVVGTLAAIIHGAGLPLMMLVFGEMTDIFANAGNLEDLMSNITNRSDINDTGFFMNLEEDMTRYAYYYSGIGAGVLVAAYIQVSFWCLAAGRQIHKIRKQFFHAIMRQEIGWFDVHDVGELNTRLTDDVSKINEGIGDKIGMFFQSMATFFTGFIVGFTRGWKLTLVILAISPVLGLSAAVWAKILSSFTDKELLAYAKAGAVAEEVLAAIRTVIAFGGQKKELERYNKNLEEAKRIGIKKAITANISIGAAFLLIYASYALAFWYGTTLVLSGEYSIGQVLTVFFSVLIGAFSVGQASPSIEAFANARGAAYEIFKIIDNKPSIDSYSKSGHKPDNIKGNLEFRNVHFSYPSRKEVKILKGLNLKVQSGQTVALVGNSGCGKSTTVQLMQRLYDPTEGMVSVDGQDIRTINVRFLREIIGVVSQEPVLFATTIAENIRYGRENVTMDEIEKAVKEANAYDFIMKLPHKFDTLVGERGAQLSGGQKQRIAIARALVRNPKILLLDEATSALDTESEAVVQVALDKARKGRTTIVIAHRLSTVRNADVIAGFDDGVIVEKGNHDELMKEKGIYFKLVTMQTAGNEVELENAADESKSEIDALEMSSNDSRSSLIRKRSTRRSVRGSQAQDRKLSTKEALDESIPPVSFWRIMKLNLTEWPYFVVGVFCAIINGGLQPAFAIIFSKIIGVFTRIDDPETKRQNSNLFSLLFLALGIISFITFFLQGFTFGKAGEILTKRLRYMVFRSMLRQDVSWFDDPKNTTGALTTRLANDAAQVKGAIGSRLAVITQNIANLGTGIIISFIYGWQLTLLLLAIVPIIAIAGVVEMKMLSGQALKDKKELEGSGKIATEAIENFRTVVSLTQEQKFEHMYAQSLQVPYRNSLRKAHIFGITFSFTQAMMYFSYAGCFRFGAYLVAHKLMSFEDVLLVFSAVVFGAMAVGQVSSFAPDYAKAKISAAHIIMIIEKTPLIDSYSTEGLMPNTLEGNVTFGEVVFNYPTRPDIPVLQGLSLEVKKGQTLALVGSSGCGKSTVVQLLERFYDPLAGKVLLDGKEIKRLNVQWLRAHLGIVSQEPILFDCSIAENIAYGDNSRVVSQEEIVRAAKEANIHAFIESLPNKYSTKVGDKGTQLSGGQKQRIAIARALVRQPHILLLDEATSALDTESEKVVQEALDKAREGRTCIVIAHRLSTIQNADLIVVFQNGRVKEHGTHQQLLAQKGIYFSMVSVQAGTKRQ
# T1 sequence (P08183 whole entry): as above
# Chain of P-gp (MDR1) (P08183 whole entry): as above
molecule,measurement,setting,value
"OC[C@H]1O[C@@H](n2ccc3cc(C4=CCCCC4)ccc32)C[C@@H]1O [5-CEInd, 5-cyclohexene indolyl 2′-deoxyribose]",effect on MDR phenotype,KB-V1 cells; KB-V1,no significant effects on MDR phenotype
"OC[C@H]1O[C@@H](n2ccc3cc(C4CCCCC4)ccc32)C[C@@H]1O [5-CHInd, 5-cyclohexyl indolyl 2′-deoxyribose]",BL→AP/AP→BL (Peff ratio),[1]; [5],11.1 and 11.1 ± 2.5
same,Ki,P-gp [2],6.5 nM
same,Km,P-gp [2],0.06 ± 0.01 µM
same,Vmax,P-gp [2],16 ± 0.2 nmol Pi/min/mg protein
same,fold by which Ki is lower than Km,P-gp [2]; Ki vs Km value of 60 nM,~ 9 fold
same,LD50,"KB3-1 cells; KB3-1 MDR −/−, 72 hours post-treatment, MTT",45 ± 3 µM
same,maximal non-toxic dose,KB-V1 cells; 48 hour period,50 µM
same,maximal non-toxic dose,KB-V1 cells; 72 hour period,10 µM
same,LD50,"KB-V1 cells; KB-V1 (MDR positive), 72 hours post-treatment, MTT",44 ± 5 µM
same,concentration at which cytotoxic,KB-V1 cells; MTT assay,greater than 50 μM
same,BL→AP/AP→BL (Peff ratio),MDCK monolayers,8.7 ± 1.3
O=[N+]([O-])c1ccc2c(ccn2C2CC(O)C(CO)O2)c1 (stereo not shown) [5-NInd],interaction with P-gp,P-gp [3],do not interact with P-gp
"OC[C@H]1O[C@@H](n2ccc3cc(-c4ccccc4)ccc32)C[C@@H]1O [5-PhInd, 5-phenyl indolyl 2′-deoxyribose]",effect on MDR phenotype,KB-V1 cells; KB-V1,no significant effects on MDR phenotype
"COc1cc2c(c(OC)c1OC)-c1ccc(OC)c(=O)cc1[C@@H](NC(C)=O)CC2 [Colchicine, reference compound]",Km,P-gp [2],37 ± 8 µM
same,change of LD50 / resistance in presence of 5-CHInd,KB-V1 cells; KB-V1,did not influence the LD50 values
"COc1cccc2c1C(=O)c1c(O)c3c(c(O)c1C2=O)C[C@@](O)(C(=O)CO)C[C@@H]3O[C@H]1C[C@H](N)[C@H](O)[C@H](C)O1 [Doxorubicin, reference compound]",change of LD50 / resistance in presence of 5-CHInd,KB-V1 cells; KB-V1,cells become more resistant
"CC(=O)O[C@H]1C(=O)[C@@]2(C)[C@H]([C@H](OC(=O)c3ccccc3)[C@]3(O)C[C@H](OC(=O)[C@H](O)[C@@H](NC(=O)c4ccccc4)c4ccccc4)C(C)=C1C3(C)C)[C@]1(OC(C)=O)CO[C@@H]1C[C@@H]2O [Paclitaxel, reference compound]",potentiating effect of 5-CHInd,"KB3-1 cells; KB3-1, does not overexpress P-gp, Supplemental Information 1",not observed
same,change of LD50 / resistance in presence of 5-CHInd,KB-V1 cells; KB-V1,decreases
same,LD50,"KB-V1 cells; KB-V1, 48 hours, in presence of 50 μM 5-CHInd",0.49 ± 0.03 µM
same,LD50,"KB-V1 cells; KB-V1, 48 hours, no treatment with 5-CHInd",4.0 ± 0.24 µM
COC(=O)c1ccccc1-c1c2ccc(=N)cc-2oc2cc(N)ccc12 [Rhodamine 123],"efflux ratio at 60 min, 3 μM",P-gp (MDR1),72.7 ± 15.3
same,BL→AP/AP→BL (Peff ratio),[1]; [5],72.7
same,"efflux ratio at 60 min, 3 μM",[4],1.2 ± 0.2
"CC[C@]1(O)C[C@@H]2CN(CCc3c([nH]c4ccccc34)[C@@](C(=O)OC)(c3cc4c(cc3OC)N(C)[C@H]3[C@@](O)(C(=O)OC)[C@H](OC(C)=O)[C@]5(CC)C=CCN6CC[C@]43[C@@H]65)C2)C1 [Vinblastine, reference compound]",change of LD50 / resistance in presence of 5-CHInd,KB-V1 cells; KB-V1,cells become more resistant
Calcein-AM,BL→AP/AP→BL (Peff ratio),[1]; 4 μM calcein-AM + 10 μM 5-CHInd,~ 1
same,BL→AP/AP→BL (Peff ratio),[1]; [5],2940 ± 120
same,BL→AP/AP→BL (Peff ratio),MDCK monolayers,2.6 ± 0.3
